This data set relates to pooled human liver microsomal preparations (HLM). The data set is described as follows: Compound 1 metabolism / metabolite formation in reconstituted system with pooled HLM. The format is in vitro ADME. Conditions: estimated by UV absorbance at 270 nm, metabolite formed or Compound 1 left after 1 hour with NADPH. As for the experimental part:
The metabolism of Compound 1 was determined by the disappearance of Compound 1 or the appearance of Compound 1 metabolites in reaction mixtures as compared to respective controls. Compound 1 was incubated in the reconstituted in vitro reaction systems containing pooled human liver S9 fractions, microsomal preparations, or recombinant hepatic CYP forms, including CYP1A2, CYP2C9, CYP2C19, CYP2D6, CYP2E1, and CYP3A4. The reaction mixture (total volume of 250 μL) contained 0.5 mg of liver microsomal protein, 50 or 25 pmol of recombinant CYP, and Compound 1 (50-80 μM) in 50 mM Tris buffer containing 15 mM MgCl2 (pH 7.4). After incubating at 37° C. with gentle shaking for 1 minute, the reaction was initiated by adding 25 μL of NADPH solution (20 mg/mL), and was carried out for 1 hour. The reaction was terminated by quickly cooling the test tube on ice, followed by the addition of an equal volume of 100% methanol. The samples were centrifuged in a desktop centrifuge at 14,000 rpm for 5 minutes, and the supernatants were filtered through syringe filters (13 mm, 0.45 μm). The filtrates were subjected to analysis using LC/MS (ion trap) or LC/MS/MS.
1. […] The detector was monitored at 270 nm, which is the UVmax of Compound 1 predetermined by scanning between 225-400 nm using a photodiode array detector (PDA). […]

`CNC(=O)Cc1ccc2ccn(C3CCN(CCc4ccccc4F)CC3)c2c1` [Compound 1, N-methyl-[1-[1-(2-fluorophenethyl)piperidine-4-yl]-1H-indol-6-yl] acetamide]: the “Rel. Amount (%)” value is given as 36%.

The values are drawn from patent US20050033056A1, “Hydroxylated indole derivatives and uses thereof” (priority 2001, published 2005).
